GI50 and TGI data for nine compounds are collected here from PubChem BioAssay (NCI).

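Results reflect a 48-hour exposure of cells in 96-well plates to compound at five concentrations. Here, GI50 denotes the concentration required for 50% inhibition of growth. At the TGI there is no net growth.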

Among the test systems are UACC-257 melanoma; SR leukemia; MDA-MB-231 breast; MDA-MB-435; DU-145 prostate; T-47D breast; TK-10 renal; PC-3 prostate; MDA-N; BT-549 breast; M19-MEL melanoma; P388/ADR leukemia; XF 498 CNS; SN12K1 renal; LXFL 529 NSCLC; RXF-631 renal.
Common to all, as to experiment: NCI tumour cell line growth inhibition, 48 h

As to `CN(C)S(=O)(=O)c1cccc(-c2nc3sc4c(c3c(=O)[nH]2)CCCC4)c1`, in the assay on UACC-257 melanoma, the GI50 was above 100 µM and the TGI is above 100 µM.
Take `O=C(/C=C/c1ccsc1)c1ccc(Cl)s1`: the TGI with SR leukemia was 54 µM; in the assay on MDA-MB-231 breast it was above 100 µM; with MDA-MB-435, 79.9 µM; in the assay with UACC-257 melanoma, above 100 µM; with DU-145 prostate, above 100 µM; in the assay with T-47D breast, above 100 µM. Moreover, the TGI in the assay with TK-10 renal, in the assay with PC-3 prostate and in the assay with MDA-N was above 100 µM in each case.
With `CC(=O)O[C@H]1CC[C@H]2[C@@H]3CC[C@H]4Nc5c(cnn5S(C)(=O)=O)C[C@]4(C)[C@H]3CC[C@]12C`, the TGI in the assay with SR leukemia was above 100 µM; in the assay with BT-549 breast it was 80.9 µM; in the assay with MDA-MB-231 breast, above 100 µM; in the assay with MDA-MB-435, above 100 µM; in the assay on DU-145 prostate it was above 100 µM; in the assay with T-47D breast, above 100 µM. Besides, the TGI in the assay with PC-3 prostate and in the assay on MDA-N was above 100 µM each time.
On to `COc1cc(C2c3cc4c(cc3[C@@H](Nc3ccc(N5CCOCC5)cc3)C3COC(=O)[C@H]23)OCO4)cc(OC)c1O` (stereo partly specified), for which the TGI came out at 22.8 µM in the assay on M19-MEL melanoma, 1.07 µM in the assay on P388/ADR leukemia, 4.23 µM in the assay on XF 498 CNS and 3.6 µM in the assay with SN12K1 renal.
For `CC1=NN(C(=O)c2ccccc2)C(=O)C1N=Nc1ccccc1C(=O)O` (stereo unspecified), the TGI with M19-MEL melanoma is above 100 µM; with P388/ADR leukemia, above 44.7 µM; in the assay with XF 498 CNS it was 69.9 µM; with SN12K1 renal, above 100 µM.
For the compound `Cn1nc2ccc3nccc(NCCNCCCl)c3c2n1`, the TGI in the assay with SR leukemia, in the assay on M19-MEL melanoma, with LXFL 529 NSCLC, in the assay with XF 498 CNS and with TK-10 renal was above 100 µM each time.
Regarding `CCOC(=O)CCc1c(C)c2c(O)cc(O)cc2oc1=O`, the TGI in the assay with M19-MEL melanoma, in the assay with P388/ADR leukemia, with XF 498 CNS, in the assay on UACC-257 melanoma and in the assay on SN12K1 renal was above 100 µM each time.
For the compound `COC(=O)C[C@](O)(CCC(C)(C)O)C(=O)O[C@@H]1C(OC)=C[C@]23CCCN2CCc2cc4c(cc2[C@H]13)OCO4`, the TGI with M19-MEL melanoma was 0.363 µM; with P388/ADR leukemia, above 100 µM; in the assay with UACC-257 melanoma, 0.537 µM; in the assay with SN12K1 renal, 0.359 µM.
As to `CCOC(=O)C1CCn2c(nc3c(=O)n(C)c(=O)n(C)c32)S1` (stereo unspecified), the TGI in the assay on SR leukemia, in the assay with LXFL 529 NSCLC, in the assay on RXF-631 renal, in the assay on UACC-257 melanoma and in the assay with TK-10 renal was above 100 µM in each case.
